Reference: BindingDB's records for doi:10.3109/14756366.2012.670807 (Atatürk University, 2013)

Assays:
Carbonic anhydrase 1 = Carbonic anhydrase 1 (Homo sapiens, UniProt P00915); experiment: Esterase Assay; conditions: pH 7.4
Procedure: (§1) CA activity was assayed by following the change in absorbance at 348 nm of 4-nitrophenylacetate (NPA) to 4-nitrophenylate ion over a period of 3 min at 25°Cusing a spectrophotometer (CHEBIOS UV-VIS) according to the method described by Verpoorte et al. [Verpoorte et al., J. Biol. Chem., 242:4221-4229] The enzymatic reaction contained 1.4 mL 0.05 M Tris-SO4 buffer (pH 7.4), 1 mL 3 mM 4-NPA, 0.5 mL H2O and 0.1 mL enzyme solution (total volume, 3.0 mL). A reference measurement was obtained by preparing the mixture without the enzyme solution. All measurements were made in triplicate. The Ki values were determined from a series of experiments using three different bromophenols concentrations and 4-NPA as the substrate at five different concentrations to construct Lineweaver-Burk curves [Lineweaver et al., J. Am. Chem. Soc., 57:685-693].

Carbonic anhydrase 2 = Carbonic anhydrase 2 (Homo sapiens, UniProt P00918); experiment: Esterase Assay; conditions: pH 7.4
Procedure: as §1

Carbonic anhydrase 1, sequence (P00915 whole entry): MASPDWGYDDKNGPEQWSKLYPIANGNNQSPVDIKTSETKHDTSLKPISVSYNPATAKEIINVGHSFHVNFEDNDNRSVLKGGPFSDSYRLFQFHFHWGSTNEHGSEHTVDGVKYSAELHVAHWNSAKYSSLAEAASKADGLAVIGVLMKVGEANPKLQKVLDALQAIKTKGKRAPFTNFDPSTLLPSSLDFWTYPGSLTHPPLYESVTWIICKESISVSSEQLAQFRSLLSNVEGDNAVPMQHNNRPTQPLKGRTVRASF

SMILES | IC50 (Carbonic anhydrase 1) [µM] | Ki (Carbonic anhydrase 1) [µM] | IC50 (Carbonic anhydrase 2) [µM] | Ki (Carbonic anhydrase 2) [µM]
O=C(c1ccc(O)c(O)c1)c1ccc(O)c(O)c1O [Carbonic anhydrase isoenzymes inhibitor, 5] | 27.8 | 32.5 | 142 | 23
O=C(c1ccc(O)c(O)c1)c1cc(Br)c(O)c(O)c1O [Carbonic anhydrase isoenzymes inhibitor, 13] | 6.92 | 6.77 | 18.5 | 3.25
O=C(c1cc(O)c(O)cc1Br)c1cc(Br)c(O)c(O)c1O [Carbonic anhydrase isoenzymes inhibitor, 14] | 3.22 | 1.19 | 24.5 | 28.6
Oc1ccc(Cc2ccc(O)c(O)c2O)cc1O [Carbonic anhydrase isoenzymes inhibitor, 15] | 54.3 | 8.36 | 79.4 | 42.5
Oc1cc(Br)c(Cc2cc(Br)c(O)c(O)c2O)cc1O [Carbonic anhydrase isoenzymes inhibitor, 16] | 4.28 | 2.59 | 63.6 | –
